Assay [1] can be described thus: ABTS radical scavenging assay. The settings on record: mean of three determinations ± SD; Nd = not detected; 732 nm. The method, then: ABTS inhibition of the isolated compounds and extracts were evaluated as described previously. Stock solution was prepared by mixing an equal volume of 7.4 mM of ABTS and 2.6 mM of potassium persulfate and kept for 24 hours before diluting with methanol. Later the solution was diluted with methanol till the absorbance at 732 nm came within the range of 0.8–1.2. To 50 µL of sample solutions of different concentration (250, 125, 100, 50 μM ) 950 μL of ABTS* was added. Absorbance was measured at 732 nm by a spectrophotometer. Ascorbic acid and Trolox, and methanol were used as a positive and negative controls, respectively. All observations were done in triplicate. Percentage inhibition was calculated from the observations. Data were presented as mean ± S.D.

A short description of assay [2]: DPPH radical scavenging assay. The settings on record: mean of three determinations ± SD; Nd = not detected; 30 min at 37 °C, 517 nm. The method, then:
The DPPH activity of the isolated compounds and extracts were evaluated as described previously. Twenty μ L of samples having different concentrations of the extract (100, 500, 250, and 125 µg/mL) and isolated compounds (100, 75, 50, and 25 μ M) keeping the total volume of solution at 180 μL (0.1 mM) solution, was added in 96 well plates and incubated for 30 min at 37 °C. The observation was measured at 517nm. Each observation was done in triplicate. Ascorbic acid and Trolox were used as positive controls, while methanol was used as a negative control. Inhibition % was calculated. Data were presented as the mean ± S.D.

A further assay deals with T1, human recombinant PTP1B (Homo sapiens, UniProt P18031).
T1 construct: purchased Sigma-Aldrich
T1 sequence (P18031 1-435): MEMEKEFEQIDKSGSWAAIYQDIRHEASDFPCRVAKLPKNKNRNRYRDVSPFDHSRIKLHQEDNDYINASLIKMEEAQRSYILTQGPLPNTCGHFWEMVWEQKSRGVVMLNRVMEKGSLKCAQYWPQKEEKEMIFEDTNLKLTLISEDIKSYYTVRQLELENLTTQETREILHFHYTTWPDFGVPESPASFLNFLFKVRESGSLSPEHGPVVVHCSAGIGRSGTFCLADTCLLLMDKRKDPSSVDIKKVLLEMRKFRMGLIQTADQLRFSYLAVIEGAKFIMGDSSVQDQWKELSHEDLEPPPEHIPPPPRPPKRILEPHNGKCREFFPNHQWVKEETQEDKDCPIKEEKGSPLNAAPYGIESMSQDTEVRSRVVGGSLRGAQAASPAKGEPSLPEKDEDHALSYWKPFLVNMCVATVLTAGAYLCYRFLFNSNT
Briefly: PTP1B inhibitory assay (pNPP substrate). The settings on record: mean of three determinations ± SD, Nd = not detected, pH 6, 37 °C. The assay is classed as biochemical.

Data on seven compounds can be found in publication PMC7248923, “A New Oleanane Type Saponin from the Aerial Parts of Nigella sativa with Anti-Oxidant and Anti-Diabetic Potential” (Molecules, 2020).

As usually defined, the IC50 is the midpoint of a concentration-inhibition curve.

Molecules are shown by their SMILES.

Protocol for human recombinant PTP1B: The inhibitory activity of the isolated compounds against human recombinant PTP1B was evaluated using p-nitrophenyl phosphate (pNPP) as a substrate. Firstly, 2 mM pNPP and PTP1B were mixed with 50 mM citrate buffer of pH 6 and 0.1 mM NaCl, 1 mM EDTA, and 1 mM DTT with or without sample keeping the final volume of the solution at 110 μL and placing them in a 96 wells plate. […] The plate was first pre-incubated for 10 min at 37 °C, and then 50 μL of pNPP in buffer was added. The plate was again incubated for 30 min at 37 °C. After that, 10 μL of 10M NaOH was added dropwise to stop the reaction. […] The inhibition percentage was calculated with the formula [( Ac−As/Ac )] × 100%, where Ac is the absorbance of control while As is the absorbance of the sample. […] Data were presented as mean ± S.D [35].

Take `O=C1O[C@H]([C@@H](O)CO)C(O)=C1O` [Ascorbic acid, reference compound]: the values for the IC50 in assay [1] and in assay [2] were 82.9 ± 2 µM and 51.7 ± 0.1 µM, respectively.
Taken in the same sequence, the figures for `COc1ccc2c(c1O)-c1c(O)c(OC)cc3c1[C@H](C2)[N+](C)(C)CC3` [Compound 5, magnoflorine] were 139.2 ± 0.5 µM and 71 ± 0.5 µM.
Taken in the same sequence, the figures for `O=c1c(OC2OC(CO)C(O)C(O)C2OC2OC(CO)C(O)C(O)C2OC2OC(CO)C(O)C(O)C2O)c(-c2ccc(O)c(O)c2)oc2cc(O)cc(O)c12` (stereo not shown) [Compound 8, quercetin sphorotrioside] were 98.8 ± 0.5 µM and 35.5 ± 0.5 µM.
On to `O=c1c(OC2OC(CO)C(O)C(O)C2O)c(-c2ccc(O)cc2)oc2cc(OC3OC(CO)C(O)C(O)C3O)cc(O)c12` (stereo not shown) [Compound 9, kaempferol-3,7-diglucoside], for which the IC50 was determined as 247 ± 2.7 µM in assay [1] and 198 ± 2.7 µM in assay [2].
The matching figures for `C[C@@H]1O[C@@H](OC[C@H]2O[C@@H](Oc3c(-c4ccc(O)c(O)c4)oc4cc(O)cc(O)c4c3=O)[C@H](O)[C@@H](O)[C@@H]2O)[C@H](O)[C@H](O)[C@H]1O` [Compound 11, rutin]: 129 ± 0.5 µM and 39.6 ± 0.5 µM.
As to `CC1OC(OC2C(OC3CCC4(C)C(CCC5(C)C4CC=C4C6CC(C)(C)CCC6(C(=O)O)CCC45C)C3(C)CO)OCC(O)C2O)C(O)C(O)C1O` [Compound 12, 3-O-[α-L-rhamnopyranosyl-(1→2)-α-L-arabinopyranpsyl]hederagenin], the IC50 on human recombinant PTP1B turned out to be 91.3 ± 2.5 µM.
As to `Cc1c(C)c2c(c(C)c1O)CCC(C)(C(=O)O)O2` (stereo not shown) [Trolox, reference compound], the IC50 worked out at 96.2 ± 1.5 µM in assay [1] and 59.4 ± 0.9 µM in assay [2].
